Reference: patent US12509482B2, “3′-ketoglycoside compound for the slow release of a volatile alcohol” (GLYCOSCIENCE, S.L., priority 2020, dated 2025)
One block for each compound: values may come before it.

Tests used:
Type in all cases: physicochemical
[1] = Example 19: release of cis-PMD from cis-PMD-O-β-D-3′-ketoglucopyranoside, 0.1 M deuterated phosphate buffer, 33% D6-DMSO, 32° C.
Experimental: In this example the rate of release of cis-PMD from (2R,3R,5S)-3,5-dihydroxy-2-(hydroxymethyl)-6-((5-(2-hydroxypropan-2-yl)-2-methylcyclohexyl)oxy)tetrahydro-4H-pyran-4-one (cis-PMD-O-β-D-3′-ketoglucopyranoside) in 0.1 M deuterated phosphate buffer solutions of differing pH containing 33% D6-DMSO was determined. 0.1 M of pH 5.8 and 7.4 stock buffered solutions of sodium dihydrogen phosphate and disodium hydrogen phosphate were prepared in deuterated water (D2O).
A stock solution of 10 mg of cis-PMD-O-β-D-3′ketoglucopyranoside in 0.5 mL of D6-DMSO were prepared.
(§1) To two parallel reaction vials, where indicated in the reaction table below, was added 0.20 mL of the glycoside substrate solutions in D6-DMSO and 0.50 mL of low or high pH 0.1M phosphate buffer in D2O and the mixtures incubated by shaking at 32° C. After times indicated in table below, the mixtures where analysed by ^1H-NMR in a 400 MHz instrument.

[2] = Example 26: release of geraniol from 2′,6′-diacetyl-geranyl-O-β-D-3′-ketoglucopyranoside, 0.1 M deuterated phosphate buffer, 50% D6-DMSO, 32° C.
Experimental: In this example the rate of release of geraniol from (((2R,3R,5S)-5-acetoxy-6-(((E)-3,7-dimethylocta-2,6-dien-1-yl)oxy)-3-hydroxy-4-oxotetrahydro-2H-pyran-2-yl)methyl acetate (2′,6′-Diacetyl-geranyl-O-β-D-3′-ketoglucopyranoside) in 0.1 M deuterated phosphate buffer solutions of differing pH containing 50% D6-DMSO was determined.
(§2) 0.1 M of pH 5.8 and 7.4 stock buffered solutions of sodium dihydrogen phosphate and disodium hydrogen phosphate were prepared in deuterated water (D2O).
A stock solution of 15 mg of 2′,6′-diacetyl-geranyl-O-β-D-3′-ketoglucopyranoside in 1.5 mL of D6-DMSO were prepared.
as §1, with “0.35” for “0.20”, “0.35” for “0.50”

[3] = Example 27: release of phenol from 2′,6′-diacetyl-phenyl-O-β-D-3′-ketoglucopyranoside, 0.1 M deuterated phosphate buffer or D2O, 33% D6-DMSO, 32° C.
Experimental: as §2
A stock solution of 25 mg of 2′,6′-diacetyl-phenyl-O-β-D-3′-ketoglucopyranoside in 1.0 mL of D6-DMSO were prepared.
as §1, with “three” for “two”, “0.40” for “0.50”

[4] = Example 14: release of eugenol from eugenyl-O-β-D-3′-ketoglucopyranoside, 0.1 M deuterated phosphate buffer or D2O, 33% D6-DMSO, 32° C.
Experimental: In this example the rate of release of eugenol from (2S,3S,5R,6R)-2-(4-allyl-2-methoxyphenoxy)-3,5-dihydroxy-6-(hydroxymethyl)tetrahydro-4H-pyran-4-one (eugenyl-O-β-D-3′-ketoglucopyranoside) in 0.1 M deuterated phosphate buffer solutions of differing pH containing 33% D6-DMSO was determined.
as §2
A stock solution of 15 mg of eugenyl-O-β-D-3′-ketoglucopyranoside in 1.0 mL of D6-DMSO were prepared.
as §1, with “To three parallel reaction” for “To two parallel reaction”, “D6-DMSO and 0.40 mL of” for “D6-DMSO and 0.50 mL of”, “buffer in D2O or D2O and” for “buffer in D2O and”

[5] = Example 18: release of picaridin from 250 μM picaridin-O-β-D-3′-ketoglucopyranoside in different pH aqueous buffers, 32° C., UPLC
Experimental: In this example the rate of release of picaridin from a solution of sec-butyl 2-(2-(((2R,3S,5R,6R)-3,5-dihydroxy-6-(hydroxymethyl)-4-oxotetrahydro-2H-pyran-2-yl)oxy)ethyl)piperidine-1-carboxylate (picaridin-O-β-D-3′-ketoglucopyranoside) different pH aqueous buffers was determined.
Parallel mixtures containing 250 μM picaridin-O-β-D-3′-ketoglucopyranoside in 0.05M K2HPO4 0.95M/KH2PO4, pH=8.5 buffer (Reaction 1), 0.17M Na2HPO4/0.02M citric acid, pH=7 buffer (Reaction 2), 0.12M Na2HPO4/0.04M citric acid buffer, pH=5.8 (Reaction 3) and 0.04M sodium citrate/0.06M citric acid buffer, pH=4 (Reaction 4) were incubated at 32° C. Aliquots of 10 μl were periodically taken, diluted with MeCN (90 μl) and analysed by UPLC using the following instrument and conditions: • Stationary phase: Acquity UPLC® BEH C18 1.7 μm (2.1 mm×50 mm) (Waters) • Mobile phase: A: water+0.1% formic acid; B: acetonitrile+0.1% formic acid • The chromatographic equipment employed was an UPLC QSM Waters Acquity. • Gradient conditions:
• Flow Rate(mL/min) 0.6 • Source Temperature (° C.) 150 • Desolvation Temperature (° C.) 500 • Cone Gas Flow (L/Hr) 50 • Desolvation Gas Flow (L/Hr) 900 • Target Column Temperature 35° C.
Target Sample Temperature 8.0° C.

% Conversion by 1H-NMR ([1]; pH 5.8, 0 h): 0%
% Conversion by 1H-NMR ([1]; pH 5.8, 3 h): 0%
% Conversion by 1H-NMR ([1]; pH 5.8, 20 h): 0%
% Conversion by 1H-NMR ([1]; pH 5.8, 95 h): <5%
% Conversion by 1H-NMR ([1]; pH 7.4, 0 h): 0%
% Conversion by 1H-NMR ([1]; pH 7.4, 3 h): 12%
% Conversion by 1H-NMR ([1]; pH 7.4, 20 h): 39%
% Conversion by 1H-NMR ([1]; pH 7.4, 95 h): 45%
% Conversion by 1H-NMR ([1]; pH 7.4, 167 h): 85%
SMILES: C[C@@H]1CC[C@@H](C(C)(C)O)C(O[C@@H]2O[C@H](CO)[C@@H](O)C(=O)[C@H]2O)C1 (mixture of isomers) [cis-PMD-O-β-D-3′-ketoglucopyranoside, (2R,3R,5S,6R)-3,5-dihydroxy-2-(hydroxymethyl)-6-(((1S,2R,5R)-2-(2-hydroxypropan-2-yl)-5-methylcyclohexyl)-oxy)tetrahydro-4H-pyran-4-one]
pH dependence of cis-PMD release (in words) ([1]; 32° C.): only slowly degraded at pH 5.8, but releases cis-PMD at a significantly higher rate at pH 7.4

SMILES: CC(=O)OC[C@H]1O[C@@H](OC/C=C(\C)CCC=C(C)C)[C@H](OC(C)=O)C(=O)[C@@H]1O [((2R,3R,5S,6R)-5-acetoxy-6-(((E)-3,7-dimethylocta-2,6-dien-1-yl)oxy)-3-hydroxy-4-oxotetrahydro-2H-pyran-2-yl)methyl acetate]
geraniol release (in words) ([2]; 32° C.): generates geraniol at both pH 5.8 and pH 7.4
% Conversion by 1H-NMR ([2]; pH 5.8, 0 h): 0%
% Conversion by 1H-NMR ([2]; pH 5.8, 5 h): 10%
% Conversion by 1H-NMR ([2]; pH 5.8, 24 h): 20%
% Conversion by 1H-NMR ([2]; pH 5.8, 48 h): 39%
% Conversion by 1H-NMR ([2]; pH 5.8, 120 h): 43%
% Conversion by 1H-NMR ([2]; pH 5.8, 480 h): 92%
% Conversion by 1H-NMR ([2]; pH 5.8, column head 19 (between 120 h and 480 h)): 62%
% Conversion by 1H-NMR ([2]; pH 7.4, 0 h): 0%
% Conversion by 1H-NMR ([2]; pH 7.4, 5 h): 6%
% Conversion by 1H-NMR ([2]; pH 7.4, 24 h): 25%
% Conversion by 1H-NMR ([2]; pH 7.4, 48 h): 33%
% Conversion by 1H-NMR ([2]; pH 7.4, 120 h): 37%
% Conversion by 1H-NMR ([2]; pH 7.4, 480 h): 85%
% Conversion by 1H-NMR ([2]; pH 7.4, column head 19 (between 120 h and 480 h)): 55%

SMILES: CC(=O)OC[C@H]1O[C@@H](Oc2ccccc2)[C@H](OC(C)=O)C(=O)[C@@H]1O [((2R,3R,5S,6S)-5-acetoxy-3-hydroxy-4-oxo-6-phenoxytetrahydro-2H-pyran-2-yl)methyl acetate]
phenol release (in words) ([3]; 32° C.): generates phenol at both pH 5.8 and pH 7.4 and in D2O
% Conversion by 1H-NMR ([3]; D2O, 0 h): 0%
% Conversion by 1H-NMR ([3]; D2O, 4 h): 0%
% Conversion by 1H-NMR ([3]; D2O, 22 h): 10%
% Conversion by 1H-NMR ([3]; D2O, 70 h (printed under the 52 h column)): 21%
% Conversion by 1H-NMR ([3]; pH 5.8, 0 h): 14%
% Conversion by 1H-NMR ([3]; pH 5.8, 4 h): 18%
% Conversion by 1H-NMR ([3]; pH 5.8, 22 h): 24%
% Conversion by 1H-NMR ([3]; pH 5.8, 52 h): 26%
% Conversion by 1H-NMR ([3]; pH 5.8, 120 h): 36%
% Conversion by 1H-NMR ([3]; pH 5.8, 432 h): 54%
% Conversion by 1H-NMR ([3]; pH 7.4, 0 h): 19%
% Conversion by 1H-NMR ([3]; pH 7.4, 4 h): 43%
% Conversion by 1H-NMR ([3]; pH 7.4, 22 h): 74%
% Conversion by 1H-NMR ([3]; pH 7.4, 52 h): 81%
% Conversion by 1H-NMR ([3]; pH 7.4, 120 h): 93%
% Conversion by 1H-NMR ([3]; pH 7.4, 432 h): 100%

% Conversion by 1H-NMR ([4]; D2O, 1 h): 3%
% Conversion by 1H-NMR ([4]; D2O, 5 h): 3%
% Conversion by 1H-NMR ([4]; D2O, 23 h): 5%
% Conversion by 1H-NMR ([4]; D2O, 69 h): 10%
% Conversion by 1H-NMR ([4]; pH 5.8, 1 h): 3%
% Conversion by 1H-NMR ([4]; pH 5.8, 5 h): 3%
% Conversion by 1H-NMR ([4]; pH 5.8, 23 h): 5%
% Conversion by 1H-NMR ([4]; pH 5.8, 69 h): 5%
% Conversion by 1H-NMR ([4]; pH 7.4, 1 h): 3%
% Conversion by 1H-NMR ([4]; pH 7.4, 5 h): 8%
% Conversion by 1H-NMR ([4]; pH 7.4, 23 h): 60%
% Conversion by 1H-NMR ([4]; pH 7.4, 69 h): 80%
SMILES: C=CCc1ccc(O[C@@H]2O[C@H](CO)[C@@H](O)C(=O)[C@H]2O)c(OC)c1 [eugenyl-O-β-D-3′-ketoglucopyranoside, (2S,3S,5R,6R)-2-(4-allyl-2-methoxyphenoxy)-3,5-dihydroxy-6-(hydroxymethyl)tetrahydro-4H-pyran-4-one]
pH dependence of eugenol release (in words) ([4]; 32° C.): only slowly degraded at pH 5.8, but releases eugenol at a significantly higher rate at pH 7.4

SMILES: CCC(C)OC(=O)N1CCCCC1CCO[C@@H]1O[C@H](CO)[C@@H](O)C(=O)[C@H]1O (stereo partly drawn) [picaridin-O-β-D-3′-ketoglucopyranoside, sec-butyl 2-(2-(((2R,3S,5R,6R)-3,5-dihydroxy-6-(hydroxymethyl)-4-oxotetrahydro-2H-pyran-2-yl)oxy)ethyl) piperidine-1-carboxylate]
pH dependence of degradation (in words) ([5]; 32° C.): degraded at increasing rate between pH 4 and pH 8.5
Picaridin released ([5]; Reaction 1, pH=8.5 buffer, 0 h): 1 µM
Picaridin released ([5]; Reaction 1, pH=8.5 buffer, 7 h): 2 µM
Picaridin released ([5]; Reaction 1, pH=8.5 buffer, 24 h): 7 µM
Picaridin released ([5]; Reaction 1, pH=8.5 buffer, 50 h): 15 µM
Picaridin released ([5]; Reaction 2, pH=7 buffer, 0 h): 1 µM
Picaridin released ([5]; Reaction 2, pH=7 buffer, 7 h): 1 µM
Picaridin released ([5]; Reaction 2, pH=7 buffer, 24 h): 2 µM
Picaridin released ([5]; Reaction 2, pH=7 buffer, 50 h): 4 µM
Picaridin released ([5]; Reaction 3, pH=5.8 buffer, 0 h): 0.25 µM
Picaridin released ([5]; Reaction 3, pH=5.8 buffer, 7 h): 0.75 µM
Picaridin released ([5]; Reaction 3, pH=5.8 buffer, 24 h): 1 µM
Picaridin released ([5]; Reaction 3, pH=5.8 buffer, 50 h): 2 µM
Picaridin released ([5]; Reaction 4, pH=4 buffer, 0 h): 0.25 µM
Picaridin released ([5]; Reaction 4, pH=4 buffer, 7 h): 0.75 µM
Picaridin released ([5]; Reaction 4, pH=4 buffer, 24 h): 1 µM
Picaridin released ([5]; Reaction 4, pH=4 buffer, 50 h): 1.75 µM
